Data published in article PMC12155096 (International Journal of Molecular Sciences, 2025).
Structures can show the parent of a compound that is named as a salt. Where two headings read alike, the source gives them in different places.

Tests used:
[1] = target: T1, human CYP2C19 (Homo sapiens, UniProt P33261); test: biochemical
[2] = target: CYP3A4 (Homo sapiens, UniProt P08684); test: biochemical
[3] = target: T2, human CYP2C9 (Homo sapiens, UniProt P11712); test: biochemical
[4] = target: Photinus pyralis (firefly) luciferase (Photinus pyralis, UniProt P08659); test: biochemical; format: biochemical
[5] = target: T3, human CYP1A2 (Homo sapiens, UniProt P05177); test: biochemical
T3 sequence (P05177 1-516): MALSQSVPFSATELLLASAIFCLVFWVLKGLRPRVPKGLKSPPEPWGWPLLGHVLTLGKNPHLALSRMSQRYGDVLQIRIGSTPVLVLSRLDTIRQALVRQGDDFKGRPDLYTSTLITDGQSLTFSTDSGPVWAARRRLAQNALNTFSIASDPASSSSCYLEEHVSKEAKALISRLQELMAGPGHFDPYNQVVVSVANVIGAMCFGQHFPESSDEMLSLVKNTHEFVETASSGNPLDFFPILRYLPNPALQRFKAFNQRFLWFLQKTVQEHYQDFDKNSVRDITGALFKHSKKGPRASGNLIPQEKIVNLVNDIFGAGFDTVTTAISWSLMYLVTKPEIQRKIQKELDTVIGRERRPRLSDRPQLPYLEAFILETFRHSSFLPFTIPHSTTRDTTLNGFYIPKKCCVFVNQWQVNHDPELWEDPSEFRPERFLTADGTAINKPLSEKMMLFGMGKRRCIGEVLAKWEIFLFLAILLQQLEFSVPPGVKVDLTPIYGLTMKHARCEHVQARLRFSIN

[6] = target: human CYP2D6 (Homo sapiens, UniProt P10635)
[7] = target: T3, human CYP1A2
[8] = target: T2, human CYP2C9
[9] = target: T1, human CYP2C19
[10] = CYP2C19 IC50 (half-maximal inhibitory concentration)
[11] = CYP3A4 IC50 (half-maximal inhibitory concentration)
[12] = CYP2C9 IC50 (half-maximal inhibitory concentration)
[13] = CYP2C19 AC50 (half-maximal activity concentration)
[14] = CYP3A4 AC50 (half-maximal activity concentration)
[15] = CYP1A2 AC50 (half-maximal activity concentration)
[16] = CYP1A2 IC50 (half-maximal inhibitory concentration)

Photinus pyralis (firefly) luciferase, sequence (P08659 whole entry): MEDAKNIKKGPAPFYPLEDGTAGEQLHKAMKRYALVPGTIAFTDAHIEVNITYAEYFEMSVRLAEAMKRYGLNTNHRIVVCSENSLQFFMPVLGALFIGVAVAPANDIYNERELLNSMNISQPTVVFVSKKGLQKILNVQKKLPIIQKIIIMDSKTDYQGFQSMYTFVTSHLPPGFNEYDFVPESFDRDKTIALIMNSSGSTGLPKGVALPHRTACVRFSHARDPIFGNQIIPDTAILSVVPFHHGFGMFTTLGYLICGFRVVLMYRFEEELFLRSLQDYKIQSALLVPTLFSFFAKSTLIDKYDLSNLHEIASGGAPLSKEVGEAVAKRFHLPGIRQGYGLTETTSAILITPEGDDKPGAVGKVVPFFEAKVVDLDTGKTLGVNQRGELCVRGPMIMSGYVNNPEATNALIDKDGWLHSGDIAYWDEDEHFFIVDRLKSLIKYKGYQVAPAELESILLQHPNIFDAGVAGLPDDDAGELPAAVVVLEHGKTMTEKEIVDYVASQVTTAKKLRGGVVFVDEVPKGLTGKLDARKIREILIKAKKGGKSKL
CYP3A4, sequence (P08684 whole entry): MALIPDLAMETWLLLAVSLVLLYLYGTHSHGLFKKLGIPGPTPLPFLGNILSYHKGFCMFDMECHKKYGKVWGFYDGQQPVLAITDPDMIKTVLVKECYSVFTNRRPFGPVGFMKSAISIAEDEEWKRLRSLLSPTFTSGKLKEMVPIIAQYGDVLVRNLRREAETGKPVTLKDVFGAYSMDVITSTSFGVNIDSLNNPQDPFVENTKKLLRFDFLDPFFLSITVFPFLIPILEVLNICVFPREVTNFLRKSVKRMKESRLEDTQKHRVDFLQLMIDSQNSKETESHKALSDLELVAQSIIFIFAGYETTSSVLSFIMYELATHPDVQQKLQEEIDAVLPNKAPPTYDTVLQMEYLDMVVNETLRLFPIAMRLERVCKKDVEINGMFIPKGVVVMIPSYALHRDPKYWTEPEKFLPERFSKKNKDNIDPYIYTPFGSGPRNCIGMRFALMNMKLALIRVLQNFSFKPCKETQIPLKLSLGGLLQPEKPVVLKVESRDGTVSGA
T2 sequence (P11712 whole entry): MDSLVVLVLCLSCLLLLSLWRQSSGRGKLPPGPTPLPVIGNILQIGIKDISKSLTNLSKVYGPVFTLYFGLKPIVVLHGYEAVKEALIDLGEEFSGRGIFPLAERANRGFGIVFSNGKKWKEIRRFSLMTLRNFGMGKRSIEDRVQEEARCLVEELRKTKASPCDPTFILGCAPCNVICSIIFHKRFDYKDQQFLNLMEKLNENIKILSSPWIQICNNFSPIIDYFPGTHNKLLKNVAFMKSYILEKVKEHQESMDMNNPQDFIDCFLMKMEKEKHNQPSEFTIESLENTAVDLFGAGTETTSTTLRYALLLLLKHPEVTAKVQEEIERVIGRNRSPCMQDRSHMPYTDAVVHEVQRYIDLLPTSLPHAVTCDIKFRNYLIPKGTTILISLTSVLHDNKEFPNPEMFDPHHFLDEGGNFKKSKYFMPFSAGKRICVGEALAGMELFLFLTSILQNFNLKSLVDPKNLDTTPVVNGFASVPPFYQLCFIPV
human CYP2D6, sequence (P10635 whole entry): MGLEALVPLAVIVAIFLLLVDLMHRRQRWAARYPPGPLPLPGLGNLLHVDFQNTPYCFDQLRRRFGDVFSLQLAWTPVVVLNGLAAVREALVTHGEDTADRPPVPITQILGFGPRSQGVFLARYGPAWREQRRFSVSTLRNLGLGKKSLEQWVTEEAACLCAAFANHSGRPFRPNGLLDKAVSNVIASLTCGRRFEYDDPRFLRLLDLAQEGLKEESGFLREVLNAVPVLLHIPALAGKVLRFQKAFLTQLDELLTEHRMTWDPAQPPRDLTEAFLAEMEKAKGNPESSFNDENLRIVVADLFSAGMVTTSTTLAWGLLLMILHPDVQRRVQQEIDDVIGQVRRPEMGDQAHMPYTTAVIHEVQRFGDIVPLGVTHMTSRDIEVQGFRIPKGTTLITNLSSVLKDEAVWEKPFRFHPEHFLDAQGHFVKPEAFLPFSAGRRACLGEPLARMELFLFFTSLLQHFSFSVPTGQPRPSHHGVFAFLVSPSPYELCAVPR
T1 sequence (P33261 whole entry): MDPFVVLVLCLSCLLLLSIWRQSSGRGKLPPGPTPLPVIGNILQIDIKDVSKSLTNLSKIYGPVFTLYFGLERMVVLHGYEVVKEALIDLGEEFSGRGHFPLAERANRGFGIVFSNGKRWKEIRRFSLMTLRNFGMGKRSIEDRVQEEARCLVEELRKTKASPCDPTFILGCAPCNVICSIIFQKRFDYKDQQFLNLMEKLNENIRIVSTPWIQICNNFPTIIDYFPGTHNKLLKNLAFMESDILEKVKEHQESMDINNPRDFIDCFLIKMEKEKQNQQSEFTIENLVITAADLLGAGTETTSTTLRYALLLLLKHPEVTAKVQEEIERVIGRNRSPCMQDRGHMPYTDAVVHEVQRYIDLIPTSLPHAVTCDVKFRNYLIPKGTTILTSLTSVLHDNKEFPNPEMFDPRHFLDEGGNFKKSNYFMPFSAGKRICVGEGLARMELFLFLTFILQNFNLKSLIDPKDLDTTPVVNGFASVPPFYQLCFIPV

Structure (SMILES): C=CC(=O)OCCn1c(=O)n(CCOC(=O)C=C)c(=O)n(CCOC(=O)C=C)c1=O
- IC50 [1]: 4.01 µM
- IC50 [2]: 0.25 µM
- IC50 [3]: 35.7 µM
- Luciferase IC50 (half-maximal inhibitory concentration) [4]: Inactive
- IC50 [5]: 58.1 µM
- CYP2D6 IC50 (half-maximal inhibitory concentration) [6]: Inactive

Structure (SMILES): COC(=O)N(C(=O)N1COC2(C(=O)OC)Cc3cc(Cl)ccc3C2=N1)c1ccc(OC(F)(F)F)cc1 (racemic) [(+-)-Indoxacarb]
- IC50 [1, 10]: 0.28 µM
- CYP1A2 IC50 (half-maximal inhibitory concentration) [7]: Inactive
- IC50 [2, 11]: 6.03 µM
- IC50 [3, 12]: 4.76 µM
- Luciferase IC50 (half-maximal inhibitory concentration) [4]: Inactive
- CYP2D6 IC50 (half-maximal inhibitory concentration) [6]: Inactive

Structure (SMILES): O=C(Cc1ccccc1)c1ccccc1 [1,2-Diphenylethanone]
- AC50 [1, 13]: 12.8 µM
- AC50 [2, 14]: 7.68 µM
- CYP2C9 AC50 (half-maximal activity concentration) [8]: Inconclusive inhibitor
- AC50 [5, 15]: 12.6 µM
- CYP2D6 AC50 (half-maximal activity concentration) [6]: Inconclusive inhibitor

Structure (SMILES): O=C1c2ccccc2C(=O)c2c(Cl)cccc21 [1-Chloroanthraquinone]
- AC50 [1]: 13.9 µM
- IC50 [1]: 13.9 µM
- AC50 [2]: 2.37 µM
- AC50 [3]: 12.6 µM
- IC50 [3]: 12.6 µM
- Luciferase IC50 (half-maximal inhibitory concentration) [4]: Inactive
- AC50 [5]: 0.05 µM
- IC50 [5]: 0.05 µM
- CYP2D6 IC50 (half-maximal inhibitory concentration) [6]: Inactive

Structure (SMILES): CC(=O)c1ccc2ccccc2c1 [2'-Acetonaphthone]
- AC50 [1, 13]: 45 µM
- AC50 [2, 14]: 34.4 µM
- CYP2C9 AC50 (half-maximal activity concentration) [8]: Inactive
- AC50 [5, 15]: 9.34 µM
- CYP2D6 AC50 (half-maximal activity concentration) [6]: Inconclusive inhibitor

Structure (SMILES): COC(=O)COc1ccc(Cl)cc1Cl [2,4-D-methyl]
- AC50 [1, 13]: 71.9 µM
- AC50 [2, 14]: 44 µM
- CYP2C9 AC50 (half-maximal activity concentration) [8]: Inactive
- AC50 [5, 15]: 15.4 µM
- CYP2D6 AC50 (half-maximal activity concentration) [6]: Inactive

Structure (SMILES): Nc1ccc2c3c(cccc13)-c1ccccc1-2 [3-Aminofluoranthene]
- IC50 ([1]; CYP2C19 IC50): 21.2 µM
- IC50 ([2]; CYP3A4 IC50): 19.8 µM
- IC50 ([3]; CYP2C9 IC50): 34.7 µM
- IC50 [4]: 27.8 µM
- IC50 ([5]; CYP1A2 IC50): 0.13 µM
- CYP2D6 IC50 [6]: Inactive

Structure (SMILES): Cc1ccc2cc3c(ccc4ccccc43)c3c2c1CC3 [3-Methylcholanthrene]
- IC50 ([1]; CYP2C19 IC50): 22.4 µM
- IC50 ([2]; CYP3A4 IC50): 8.02 µM
- IC50 ([3]; CYP2C9 IC50): 6.43 µM
- IC50 [4]: 6.94 µM
- IC50 ([5]; CYP1A2 IC50): 0.39 µM
- CYP2D6 IC50 [6]: Inactive

Structure (SMILES): COc1ccc(COC(C)=O)cc1 [4-Methoxybenzyl acetate]
- AC50 [1]: 53.7 µM
- AC50 [2]: 40.8 µM
- CYP2C9 AC50 (half-maximal activity concentration) [8]: Inactive
- AC50 [5]: 28.9 µM
- CYP2D6 AC50 (half-maximal activity concentration) [6]: Inactive

Structure (SMILES): Cc1c2ccccc2c(C)c2c1ccc1ccccc12 [7,12-Dimethylbenz(a)anthracene]
- IC50 ([1]; CYP2C19 IC50): 6.09 µM
- IC50 ([2]; CYP3A4 IC50): 22.6 µM
- IC50 ([3]; CYP2C9 IC50): 27.3 µM
- IC50 [4]: 32.7 µM
- IC50 ([5]; CYP1A2 IC50): 0.5 µM
- CYP2D6 IC50 [6]: Inactive

Structure (SMILES): O=C1c2ccccc2-c2ccccc21 [9-Fluorenone]
- AC50 [1]: 43.8 µM
- IC50 [1]: 43.8 µM
- AC50 [2]: 10.4 µM
- AC50 [3]: 67.7 µM
- IC50 [3]: 67.7 µM
- IC50 [4]: 67.7 µM
- AC50 [5]: 0.45 µM
- IC50 [5]: 0.45 µM
- CYP2D6 IC50 (half-maximal inhibitory concentration) [6]: Inactive

Structure (SMILES): COc1ccc(-c2ccccc2)cc1NNC(=O)OC(C)C [Bifenazate]
- IC50 [1, 10]: 0.49 µM
- IC50 [2, 11]: 1.51 µM
- IC50 [3, 12]: 2.33 µM
- Luciferase IC50 (half-maximal inhibitory concentration) [4]: Inactive
- IC50 [5, 16]: 4.75 µM

Structure (SMILES): O=S1(=O)OCC2C(CO1)C1(Cl)C(Cl)=C(Cl)C2(Cl)C1(Cl)Cl (centres unmarked) [Endosulfan sulfate]
- IC50 ([1]; CYP2C19 IC50): 2.25 µM
- IC50 ([2]; CYP3A4 IC50): 0.22 µM
- IC50 ([3]; CYP2C9 IC50): 18.7 µM
- IC50 [4]: 53.2 µM
- IC50 ([5]; CYP1A2 IC50): 47.5 µM
- CYP2D6 IC50 [6]: Inactive

Structure (SMILES): CCN(Cc1c(F)cccc1Cl)c1c([N+](=O)[O-])cc(C(F)(F)F)cc1[N+](=O)[O-] [Flumetralin]
- IC50 [1, 10]: 2.22 µM
- CYP1A2 IC50 (half-maximal inhibitory concentration) [7]: Inactive
- IC50 [2, 11]: 0.38 µM
- IC50 [3]: 7.39 µM
- Luciferase IC50 (half-maximal inhibitory concentration) [4]: Inactive
- CYP2D6 IC50 (half-maximal inhibitory concentration) [6]: Inactive

Structure (SMILES): CNC(=O)Oc1ccccc1C(C)C [Isoprocarb]
- AC50 [1, 13]: 63.5 µM
- AC50 [2, 14]: 49.3 µM
- CYP2C9 AC50 (half-maximal activity concentration) [8]: Inconclusive inhibitor
- AC50 [5, 15]: 35.6 µM
- CYP2D6 AC50 (half-maximal activity concentration) [6]: Inactive

Structure (SMILES): CO/N=C(/C(=O)OC)c1ccccc1COc1ccccc1C [Kresoxim-methyl]
- IC50 [1, 10]: 0.51 µM
- IC50 [2, 11]: 9.48 µM
- IC50 [3, 12]: 19.6 µM
- Luciferase IC50 (half-maximal inhibitory concentration) [4]: Inactive
- IC50 [5, 16]: 22 µM
- CYP2D6 IC50 (half-maximal inhibitory concentration) [6]: Inactive

Structure (SMILES): CCN(CC)C(=O)C(C)Oc1cccc2ccccc12 (centres unmarked) [Napropamide]
- IC50 [1, 10]: 0.66 µM
- IC50 [2, 11]: 7.56 µM
- IC50 [3, 12]: 29.9 µM
- Luciferase IC50 (half-maximal inhibitory concentration) [4]: Inactive
- IC50 [5, 16]: 25 µM
- CYP2D6 IC50 (half-maximal inhibitory concentration) [6]: Inactive

Structure (SMILES): O=[N+]([O-])c1c(Cl)c(Cl)c(Cl)c(Cl)c1Cl [Pentachloronitrobenzene]
- CYP2C19 AC50 (half-maximal activity concentration) [9]: Inconclusive inhibitor
- AC50 [2, 14]: 4.7 µM
- CYP2C9 AC50 (half-maximal activity concentration) [8]: Inconclusive inhibitor
- AC50 [5, 15]: 1.94 µM
- CYP2D6 AC50 (half-maximal activity concentration) [6]: Inactive

Structure (SMILES): Cc1ccc2ccccc2n1 [Quinaldine]
- CYP2C19 AC50 (half-maximal activity concentration) [9]: Inactive
- AC50 [2, 14]: 47.7 µM
- CYP2C9 AC50 (half-maximal activity concentration) [8]: Inactive
- AC50 [5, 15]: 44 µM
- CYP2D6 AC50 (half-maximal activity concentration) [6]: Inactive

Structure (SMILES): CCNc1nc(NCC)nc(SC)n1 [Simetryn]
- CYP2C19 AC50 (half-maximal activity concentration) [9]: Inconclusive inhibitor
- AC50 [2, 14]: 46.2 µM
- CYP2C9 AC50 (half-maximal activity concentration) [8]: Inconclusive activator
- AC50 [5, 15]: 8.11 µM
- CYP2D6 AC50 (half-maximal activity concentration) [6]: Inactive

Structure (SMILES): CCNc1nc(NC(C)(C)C)nc(SC)n1 [Terbutryn]
- AC50 [1, 13]: 39.6 µM
- AC50 [2, 14]: 11.5 µM
- CYP2C9 AC50 (half-maximal activity concentration) [8]: Inconclusive activator
- AC50 [5, 15]: 7.74 µM
- CYP2D6 AC50 (half-maximal activity concentration) [6]: Inactive
